The text below walks through data of patent publication US10077436B2, “Beta-glucosidase enzymes for increased biomass saccharification” (Edeniq, Inc., priority 2013, dated 2018).

Usually Ki stands for the dissociation constant of the complex between target and ligand, obtained from inhibition or displacement. A lower Ki goes with higher affinity.

In this assay the target is T1, Aspergillus niger beta-glucosidase (CAB75696.1, SEQ ID NO:2) improved variant yEdQ885-BG (Aspergillus niger, UniProt Q9P8F4, Y363C/Y375F/Y610F).
T1 construct: strain yEdQ885, BG acid/base mutant #8
T1 sequence (Q9P8F4 20-860 Y363C/Y375F/Y610F): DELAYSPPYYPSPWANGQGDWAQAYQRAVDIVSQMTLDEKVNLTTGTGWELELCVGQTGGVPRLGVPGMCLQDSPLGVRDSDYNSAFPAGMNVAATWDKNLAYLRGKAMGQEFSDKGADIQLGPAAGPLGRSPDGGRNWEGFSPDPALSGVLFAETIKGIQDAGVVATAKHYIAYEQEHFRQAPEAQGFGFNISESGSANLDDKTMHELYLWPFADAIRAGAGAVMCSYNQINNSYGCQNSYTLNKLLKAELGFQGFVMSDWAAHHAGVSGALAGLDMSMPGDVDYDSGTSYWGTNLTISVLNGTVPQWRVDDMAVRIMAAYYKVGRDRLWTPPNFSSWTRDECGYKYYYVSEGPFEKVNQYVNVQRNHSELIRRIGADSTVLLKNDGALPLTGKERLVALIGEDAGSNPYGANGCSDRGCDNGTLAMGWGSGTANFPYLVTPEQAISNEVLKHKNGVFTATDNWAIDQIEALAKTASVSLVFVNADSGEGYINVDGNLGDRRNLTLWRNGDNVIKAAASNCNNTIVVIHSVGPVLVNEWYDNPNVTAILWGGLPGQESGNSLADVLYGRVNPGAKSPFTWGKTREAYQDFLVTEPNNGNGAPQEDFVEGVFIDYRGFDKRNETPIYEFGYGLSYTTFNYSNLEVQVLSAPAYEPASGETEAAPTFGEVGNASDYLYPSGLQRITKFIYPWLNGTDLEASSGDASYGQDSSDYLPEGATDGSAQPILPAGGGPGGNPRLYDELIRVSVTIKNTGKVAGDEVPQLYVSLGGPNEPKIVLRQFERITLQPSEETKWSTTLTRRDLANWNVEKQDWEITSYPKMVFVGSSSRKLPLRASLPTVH
In words: BG kinetics, cellobiose hydrolysis assay (HPLC) with glucose as competitive inhibitor, yEdQ885-BG. It is filed as biochemical. The text has this:
The beta-glucosidase (BG) gene from Aspergillus niger (Accession #CAB75696.1) was integrated into the TR3 yeast background at the T4U3 genomic site.
High resolution enzyme assays and kinetic testing comparing the beta-glucosidases described herein and commercial enzyme preparations were pursued to more clearly quantify differences in mutant BG enzymes compared to the wild type BG enzyme. Based on data presented herein, BG mutant YEdQ885 was selected for further analysis and compared to the BG activity present in commercial preparations of SP188 (Novozymes) and Accellerase® BG (DuPont) as well as wild type BG.
The kinetic properties of beta glucosidase are important for cellulosic hydrolysis, since in commercial situations a wide range of substrate concentrations and different product inhibition conditions will be encountered. In this example, a Michaelis-Menten kinetics model was used to describe BG kinetics. To determine these kinetic properties, BG activity assays using standard substrates pNPG and cellobiose were employed. yEdQ745-BG (wild type) and yEdQ885-BG (improved), were compared with two commercial BGs, A-BG (Accellerase®) BG from Dupont) and S-BG (Novozymes SP188 from Sigma). […]

Take `OC[C@H]1OC(O)[C@H](O)[C@@H](O)[C@@H]1O` (some centres unmarked) [glucose]: affinity was put at a Ki of 1110 ± 190 µM. Moreover, the Km/Ki (inhibitor influence, Km for cellobiose / Ki for glucose, pH 4.8, 50° C.) is on record as 1.31.
